In patent US8568814B2, “Lanthionine derivatives” (Ajinomoto Co., Inc., priority 2009, dated 2013):

Assays:
human CaSR [1] = molecular target: T1, human CaSR (Homo sapiens, UniProt P41180, E1011Q); assay: Evaluation (1) and (2) of CaSR agonist activity (Ca2+ fluorescence in transfected 293E cells); assay type: cell-based; conditions: 293E cells transfected with hCaSR/pcDNA3.1; Calcium 4/5 Assay Kit; methods (1) and (2)
T1 construct: expressed in transfected cells; host or cells: 293E cells (EBNA1-expression HEK293 cells, ATCC No. CRL-10852), transient transfection of hCaSR/pcDNA3.1
T1 sequence (P41180 20-1078 E1011Q): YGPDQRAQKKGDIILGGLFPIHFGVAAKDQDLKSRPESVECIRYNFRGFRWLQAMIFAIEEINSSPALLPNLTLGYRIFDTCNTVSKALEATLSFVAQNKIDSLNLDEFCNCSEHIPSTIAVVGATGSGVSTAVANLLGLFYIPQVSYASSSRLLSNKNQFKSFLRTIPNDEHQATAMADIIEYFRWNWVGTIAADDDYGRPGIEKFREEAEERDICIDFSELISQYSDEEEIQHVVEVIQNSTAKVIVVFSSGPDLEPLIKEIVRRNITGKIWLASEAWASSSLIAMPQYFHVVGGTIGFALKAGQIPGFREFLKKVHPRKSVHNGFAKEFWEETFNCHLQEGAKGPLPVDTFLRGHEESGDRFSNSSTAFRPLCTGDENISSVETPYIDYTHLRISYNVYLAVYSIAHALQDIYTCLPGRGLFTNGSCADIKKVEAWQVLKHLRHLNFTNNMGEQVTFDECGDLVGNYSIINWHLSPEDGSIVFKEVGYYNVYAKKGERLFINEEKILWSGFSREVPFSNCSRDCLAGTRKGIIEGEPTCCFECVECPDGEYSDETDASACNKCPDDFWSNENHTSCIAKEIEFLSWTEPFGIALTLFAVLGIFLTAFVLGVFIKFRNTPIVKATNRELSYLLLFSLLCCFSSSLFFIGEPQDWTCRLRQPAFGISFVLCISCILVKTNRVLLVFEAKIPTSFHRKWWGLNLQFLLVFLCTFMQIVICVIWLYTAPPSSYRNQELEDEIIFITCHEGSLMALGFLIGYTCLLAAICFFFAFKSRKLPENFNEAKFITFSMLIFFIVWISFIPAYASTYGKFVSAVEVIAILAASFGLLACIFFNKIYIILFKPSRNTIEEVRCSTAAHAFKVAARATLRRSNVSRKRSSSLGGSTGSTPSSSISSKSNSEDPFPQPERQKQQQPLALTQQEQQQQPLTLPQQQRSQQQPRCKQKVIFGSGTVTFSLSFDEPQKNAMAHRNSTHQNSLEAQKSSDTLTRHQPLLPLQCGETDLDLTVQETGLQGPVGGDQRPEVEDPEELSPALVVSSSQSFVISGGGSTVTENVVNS
Procedure: (§1) 293E Cells (EBNA1-expression HEK293 cells, ATCC No. CRL-10852) were cultivated in DMEM/Ham's-F12 (3.15/ml Glucose-containing Dulbecco's modified Eagle medium; available from NAKARAI TESK Company) containing 10% fetal calf serum in the presence of 200 μg/ml of G418 (available from Genetisine Company). The cultured cells were inoculated in F25 flask at a density of 3×10^6 cells/10 ml, then the content of the flask was allowed to stand for 24 hours in a CO2 incubator (5% CO2, 37° C.), and then the human CaSR-expression plasmid hCaSR/pcDNA3.1 was transfected using a transfection agent Fugene 6 (available from Roche Company). After allowing the flask to stand in a CO2 incubator for 6 to 7 hours, the cells were recovered using 10% fetal calf serum-containing DMEM/Ham's-F12 and then inoculated in each well of a poly-D-lysine coat 96-well plate (BD-Biocoat) at a density of 70,000 cells/well.
(§2) After allowing the well plate to stand in a CO2 incubator for 24 hours, the culture medium was removed from each well of the 96-well plate to which the cells had been inoculated, and a solution of Ca^2+ fluorescent indicator Calcium 4 Assay Kit (available from Molecular Devices Company) in an Assay Buffer (containing 146 mM of NaCl, 5 mM of KCl, 1 mM of MgSO4, 1 mg/ml of Glucose, 20 mM of HEPES (pH 7.2), and 0.75 to 1.25 mM of CaCl2) in an amount of 200 μl/well was added to each well, and each well was allowed to stand at 37° C. for one hour and then at room temperature for 10 minutes to thus make the cells take the indicator.
(§3) To each well of the 96-well plate, a solution of a test compound in a 0.1% BSA-containing Assay Buffer in an amount of 50 μl/well was added, and the wells were inspected for any change in the intensity of fluorescent light rays emitted therefrom for 3 minutes using FLEX Station (available from Molecular Devices Company).
(§4) Method for the Calculation of EC50
(§5) The difference (RFU (Max-Min) between the maximum and minimum intensities of fluorescent light rays observed before and after the addition of the test compound were calculated according to the automatic calculation by the FLEX Station. In this respect, the activity rate of a test compound was calculated, while the RFU (Max-Min) value observed when adding a test compound in a maximum concentration was defined to be 100% and the RFU (Max-Min) value observed when using a 0.1% BSA-containing Assay Buffer free of any added test compound was defined to be 0%, then the curve-fitting was carried out using a software Xfit for spreadsheet or a GraphPad Prism to thus determine each corresponding EC50 value as the concentration of each test compound observed at the activity rate of 50%.
as §1, with “plasmid:” for “plasmid”, “384-well” for “96-well”, “2×10^6” for “70,000”, “cells/well. […]” for “cells/well.”

panelists [2] = assay: Quantitative organoleptic evaluation of kokumi-imparting activity in dried-bonito extract; assay type: in vivo, human; conditions: for Intensity of Kokumi After Taste / Intensity of Kokumi Initial-Middle Taste: score scale -5 to +5, n=5
Procedure: The pH value of the samples used was adjusted to that of the control free of any test compound (i.e., the pH value of the latter +0.2). […] The scoring was carried out using the linear-scale technique, in which each corresponding score was plotted on a straight line on which the scores equal to −5, 0 and +5 had been expressly specified. […] In this respect, the term “initial-middle taste” means the taste detected from 0 to 5 seconds after placing and maintaining each sample in each panelist's mouth, and the term “after taste” means that detected thereafter.

panelists [3] = assay: Quantitative organoleptic evaluation of kokumi-imparting activity in umami/salty solution; assay type: in vivo, human; conditions: for Intensity of Kokumi After Taste / Intensity of Kokumi Initial-Middle Taste: score scale -5 to +5, n=5
Procedure: The scoring was carried out using the linear-scale technique, in which each corresponding score was plotted on a straight line on which the scores equal to −5, 0 and +5 had been expressly specified. In addition, persons selected as panelists in these evaluation tests were persons who had been engaged in the development of a seasoning over a cumulative period of at least a half year, and who could so judge that the difference between γ-Glu-Cys-Gly and γ-Glu-Val-Gly, each of which was added to a solution having umami and salty taste, was about 10 times (this ability was confirmed at regular intervals). In this respect, the term “initial-middle taste” means the taste detected from 0 to 5 seconds after placing and maintaining each sample in each panelist's mouth, and the term “after taste” means that detected thereafter.

human CaSR [4] = molecular target: T2, human CaSR (Homo sapiens, UniProt P41180); assay: Evaluation (1) and (2) of CaSR agonist activity (Ca2+ fluorescence in transfected 293E cells); assay type: cell-based; conditions: ratio to γ-Glu-Cys
T2 construct: expressed in transfected cells; host or cells: 293E cells (EBNA1-expression HEK293 cells, ATCC No. CRL-10852), transient transfection of hCaSR/pcDNA3.1
T2 sequence (P41180 20-1078 E1011Q): T1 sequence (P41180 20-1078 E1011Q)
Procedure: as §1, §2, §3, §4, §5
as §1, with “plasmid:” for “plasmid”, “384-well” for “96-well”, “2×10^6” for “70,000”, “cells/well. […]” for “cells/well.”

panelists [5] = assay: Quantitative organoleptic evaluation of kokumi-imparting activity in cow's milk; assay type: in vivo, human; conditions: for Intensity of Kokumi After Taste / Intensity of Kokumi Initial-Middle Taste: score scale -5 to +5, n=5
Procedure: The quantitative organoleptic evaluation test was carried out according to the following procedures: The intensity of the kokumi-imparting activity of the test compound was determined using a mixture obtained by adding, to the commercially available cow's milk (fat content: 3.6%), […] The pH value of the samples used was adjusted to that of the control free of any test compound (i.e., the pH value of the latter +0.2). […] The scoring was carried out using the linear-scale technique, in which each corresponding score was plotted on a straight line on which the scores equal to −5, 0 and +5 had been expressly specified. […] In this respect, the term “initial-middle taste” means the taste detected during the term ranging from 0 to 5 seconds after keeping each sample in each panelist's mouth and the term “after taste” means that detected thereafter.

[6] = 0.0001 g/dL in dried bonito extract 20.0 g/dL with common salt 0.5 g/dL
[7] = 0.0005 g/dL in dried bonito extract 20.0 g/dL with common salt 0.5 g/dL
[8] = 0.0001 g/dL in water with MSG 0.05, IMP 0.05, NaCl 0.5 g/dL
[9] = 0.0005 g/dL in water with MSG 0.05, IMP 0.05, NaCl 0.5 g/dL
[10] = 0.0001 g/dL in cow's milk (fat content 3.6%)
[11] = 0.0005 g/dL in cow's milk (fat content 3.6%)
[12] = 0.01 g/dL, reference standard for the scoring
[13] = 0.001 g/dL in dried bonito extract 20.0 g/dL with common salt 0.5 g/dL
[14] = 0.001 g/dL in water with MSG 0.05, IMP 0.05, NaCl 0.5 g/dL
[15] = 0.001 g/dL in cow's milk (fat content 3.6%)

`N[C@@H](CCC(=O)N[C@H]1CSC[C@H](C(=O)O)NC1=O)C(=O)O` [Compound 8a] gave an EC50 (human CaSR [1]) of 14300 nM.

With `N[C@@H](CCC(=O)N[C@H]1CSC[C@@H](C(=O)O)NC1=O)C(=O)O` [Compound 8b] the “Intensity of Kokumi After Taste” value (panelists [2]; [6]) was 2.5, the “Intensity of Kokumi Initial-Middle Taste” value (panelists [2]; [6]) was 2.3 and the “kokumi-imparting activity (in words)” value (panelists [2]; 0.0001 to 0.0005 g/dL in dried bonito extract solution) was “showed its kokumi-imparting activity over the wide range of the foregoing added concentrations”. For the same compound, the “Intensity of Kokumi After Taste” value (panelists [2]; [7]) was 3.7, the “Intensity of Kokumi Initial-Middle Taste” value (panelists [2]; [7]) was 3.5 and the “Intensity of Kokumi After Taste” value (panelists [3]; [8]) was 2.4. For the same compound, the “Intensity of Kokumi Initial-Middle Taste” value (panelists [3]; [8]) was 2.3, the “kokumi-imparting activity (in words)” value (panelists [3]; 0.0001 to 0.0005 g/dL in water with MSG, IMP, NaCl) was “showed its kokumi-imparting activity over the wide range of the foregoing added concentrations” and the “Intensity of Kokumi After Taste” value (panelists [3]; [9]) was 3.5. The “Intensity of Kokumi Initial-Middle Taste” value (panelists [3]; [9]) was 3.4, the EC50 (human CaSR [1]) was 53 nM and the “CaSR agonist activity relative to that of γ-Glu-Cys” value (human CaSR [4]) was “about 9 times”. The “Intensity of Kokumi After Taste” value (panelists [5]; [10]) was 2.3, the “Intensity of Kokumi Initial-Middle Taste” value (panelists [5]; [10]) was 2.4 and the “kokumi-imparting activity (in words)” value (panelists [5]; 0.0001 to 0.0005 g/dL in cow's milk) was “showed its kokumi-imparting activity over the wide range of the foregoing added concentrations”. For the same compound, the “Intensity of Kokumi After Taste” value (panelists [5]; [11]) was 3.5 and the “Intensity of Kokumi Initial-Middle Taste” value (panelists [5]; [11]) was 3.5.

`N[C@@H](CCC(=O)N[C@@H]1CSC[C@@H](C(=O)O)NC1=O)C(=O)O` [Compound 8c] gave an EC50 (human CaSR [1]) of 20000 nM.

Work on `N[C@@H](CCC(=O)N[C@@H]1CSC[C@H](C(=O)O)NC1=O)C(=O)O` [Compound 8d] yielded an EC50 (human CaSR [1]) of 1950 nM.

`N[C@@H](CCC(=O)N[C@H]1CSCCC(C(=O)O)NC1=O)C(=O)O` (stereo partly drawn) [Compound 21] showed an EC50 (human CaSR [1]) of 1850 nM.

`C[C@@H]1SC[C@H](NC(=O)CC[C@H](N)C(=O)O)C(=O)N[C@@H]1C(=O)O` [Compound 29] showed an EC50 (human CaSR [1]) of 580 nM.

`N[C@@H](CCC(=O)NC1CCCC(C(=O)O)NC1=O)C(=O)O` (stereo partly drawn) [Compound 35] showed an EC50 (human CaSR [1]) of 199 nM.

For `N[C@@H](CCC(=O)N[C@@H](CS)C(=O)O)C(=O)O` [γ-Glu-Cys, reference compound], the EC50 (human CaSR [1]) was 460 nM.

In the case of `N[C@@H](CCC(=O)N[C@@H](CS)C(=O)NCC(=O)O)C(=O)O` [γ-Glu-Cys-Gly, reference compound], the “intensity of the kokumi, after taste” value (panelists [2]; [12]) is reported as 3.0, the “intensity of the kokumi, initial-middle taste” value (panelists [2]; [12]) is reported as 3.0 and the “intensity of the kokumi, after taste” value (panelists [3]; [12]) is reported as 3.0. For the same compound, the “intensity of the kokumi, initial-middle taste” value (panelists [3]; [12]) was 3.0, the “intensity of the kokumi, after taste” value (panelists [5]; [12]) was 3.0 and the “intensity of the kokumi, initial-middle taste” value (panelists [5]; [12]) was 3.0.

With `CC(C)[C@H](NC(=O)CC[C@H](N)C(=O)O)C(=O)NCC(=O)O` [γ-Glu-Val-Gly, reference compound] the “Intensity of Kokumi After Taste” value (panelists [2]; [13]) was 3.0, the “Intensity of Kokumi Initial-Middle Taste” value (panelists [2]; [13]) was 2.5 and the “Comments for the Evaluation” value (panelists [2]; 0.001 g/dL in dried bonito extract solution) was “The fish meat taste of the dried”. The “Intensity of Kokumi After Taste” value (panelists [3]; [14]) was 3.0, the “Intensity of Kokumi Initial-Middle Taste” value (panelists [3]; [14]) was 2.5 and the “Comments for the Evaluation” value (panelists [3]; 0.001 g/dL in water with MSG, IMP, NaCl) was “The kokumi is strengthened mainly”. For the same compound, the “Comments for the Evaluation” value (panelists [5]; 0.001 g/dL in cow's milk) was “The thickness feeling of the cow's”, the “Intensity of Kokumi After Taste” value (panelists [5]; [15]) was 3.0 and the “Intensity of Kokumi Initial-Middle Taste” value (panelists [5]; [15]) was 2.5.
